{"source": "the SangsterLogP compilation"}
{"test": "method code SF-AS, from DOI: 10.1002/zfch.19790190911"}
{"molecule": "CCCc1nnc(N)o1", "logP": 0.23}
{"molecule": "CCCCCCCCCC(=O)NN", "logP": 0.03}
{"molecule": "CCC(=O)NN", "logP": -1}
{"molecule": "CC(C)Cc1nnc(N)o1", "logP": 0.4}
{"molecule": "CCCCCc1nnc(N)o1", "logP": 1.1}
{"molecule": "CCCCCCCc1nnc(N)o1", "logP": 0.73}
{"molecule": "Cc1nnc(N)o1", "logP": -0.92}
{"molecule": "CCCCC(=O)NN", "logP": -0.11}
{"molecule": "CCc1nnc(N)o1", "logP": -0.3}
{"molecule": "CCCCCC(=O)NN", "logP": 0.48}
{"molecule": "NNC=O", "logP": -2.05}
{"molecule": "Nc1nnc(Cc2ccccc2)o1", "logP": 0.95}
{"molecule": "CCCCCCCCC(=O)NN", "logP": 0.5}
{"molecule": "CC(=O)NN", "logP": -1.58}
{"molecule": "CC(C)c1nnc(N)o1", "logP": 0.2}
{"molecule": "CC(C)CC(=O)NN", "logP": -0.31}
{"molecule": "Nc1nnc(CCc2ccccc2)o1", "logP": 1.19}
{"molecule": "CC(C)C(=O)NN", "logP": -0.63}
{"molecule": "Nc1nnco1", "logP": -1.44}
{"molecule": "CCCCCCCC(=O)NN", "logP": 1}
{"molecule": "CCCCCCC(=O)NN", "logP": 0.97}
{"molecule": "CCCC(=O)NN", "logP": -0.62}
{"molecule": "CCCCc1nnc(N)o1", "logP": 0.65}
{"molecule": "CC(C)(C)c1nnc(N)o1", "logP": 0.48}
{"molecule": "CCC(C)c1nnc(N)o1", "note": "(stereo not drawn)", "logP": 0.62}
{"molecule": "CC(C)(C)C(=O)NN", "logP": -0.35}
{"molecule": "CCCCCCc1nnc(N)o1", "logP": 1.43}
{"molecule": "CCC(C)C(=O)NN", "note": "(stereo not drawn)", "logP": -0.33}
